Experimental data as given in patent US6461997B1, “Triazole sulfones having herbicidal activity” (Monsanto Technology LLC, priority 1999, dated 2002).

Assays:
ALOMY (blackgrass) = assay: Pre-emergence herbicidal activity, cool season; assay type: in vivo, Alopecurus myosuroides; conditions: GR80 = lowest tested rate (300, 100, 30, 10 g/ha) with 80% or greater inhibition; approx. 14 days after treating; 18/13° C.
Summary of the method: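 Activity is expressed as the rate giving 80% inhibition, with 300, 100, 30 and 10 g/ha typically tested. An asterisk marks activity short of 80% at the top rate. Warm-season grasses were held at 30/21 °C; cool-season blackgrass and wild buckwheat at 18/13 °C; scoring at about 14 days.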

POLCO (wild buckwheat) = assay: Pre-plant incorporated (PPI) herbicidal activity, cool season; assay type: in vivo, Polygonum convolvulus
Experimental: (§1) In another set of tests, the pre-plant incorporated (PPI) activity of compounds of this invention was evaluated on the same species as for the pre-emergence tests described above. In the PPI tests the following procedure, designed to simulate PPI application, was used.
(§2) A pre-prepared topsoil mixture (described above) was placed in a pot and compacted to a depth of 1.0 to 1.25 cm from the top of the pot. Seeds of each of several monocotyledonous and dicotyledonous annual plant species were placed on top of the soil. A sufficient quantity of soil to cover the seeds and level fill the pot was weighed into an open container. A known amount of the test compound was dissolved or suspended in an organic solvent and applied by spraying to this cover soil. The cover soil was thoroughly mixed to distribute the test compound throughout the cover soil, and was then applied as a cover layer over the seeds. Untreated soil was used as a cover layer for control pots. After treatment the plants were placed in a greenhouse where they received 0.64 cm of overhead irrigation. All subsequent watering consisted of a light overhead mist and/or subirrigation as needed for germination and growth. Tables 9 and 10 below relate to warm season plant species which were placed after pre-emergence treatment in a greenhouse with a 30/21° C. day/night temperature regime. Tables 11 and 12 below relates to cool season plant species placed after pre-emergence treatment in a greenhouse or growth chamber with an 18/13° C. day/night temperature regime. Only the compounds of Examples 1, 6, 8, 11, 13 and 15-20 were included in PPI tests.
(§3) Approximately 14 days after planting and treating, the plants were observed and herbicidal efficacy recorded as percent inhibition by comparison with untreated plants.

STEME (common chickweed) = assay: as above; assay type: in vivo, Stellaria media
Experimental: as §1, §2, §3

rice (ORYSA) = assay: Selectivity test, PPI, warm season crop; assay type: in vivo, Oryza sativa; conditions: PPI application
Experimental: as §2, §3
Additional pre-emergence and PPI tests were conducted by the procedures described above, on warm and cool season weed species in the presence of crop species, to assess herbicidal selectivity. Crop species included in warm season tests were corn (Zea mays, ZEAMX), rice (Oryza sativa, ORYSA) and soybean (Glycine max, GLYMX). Crop species included in cool season tests were wheat (Triticum aestivum, TRZAW), barley (Hordeunm vulgare, HORVX) and oilseed rape (Brassica napus, BRSNS).
Tables 15 and 16 relate to pre-emergence and PPI tests respectively on warm season species. Table 17 relates to pre-emergence tests on cool season species.

SETFA (giant foxtail) = assay: Pre-emergence herbicidal activity, warm season; assay type: in vivo, Setaria faberi; conditions: for Pre-emergence activity (GR80) SETFA: GR80 = lowest tested rate (300, 100, 30, 10 g/ha) with 80% or greater inhibition, approx. 14 days after treating, 30/21° C.
Summary of the method: (§4)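 GR80 values derive from percent inhibition relative to untreated plants, read roughly 14 days after sowing and pre-emergence soil-surface treatment (compound in 50:50 acetone/water; rates typically 10, 30, 100, 300 g/ha). Warm-season weeds grew at 30/21° C day/night, cool-season ones at 18/13° C; an asterisk marks activity without reaching 80% at the highest rate.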

[1] = system: AGSST (creeping bentgrass); assay: Pre-emergence herbicidal activity, cool season; assay type: in vivo, Agrostis stolonifera; conditions: GR80 = lowest tested rate (300, 100, 30, 10 g/ha) with 80% or greater inhibition; approx. 14 days after treating; 18/13° C.
Summary of the method: as §4

ABUTH (velvetleaf) = assay: Pre-plant incorporated (PPI) herbicidal activity, warm season; assay type: in vivo, Abutilon theophrasti
Experimental: as §1, §2, §3

PANDI (fall panicum) = assay: Pre-emergence herbicidal activity, warm season; assay type: in vivo, Panicum dichotomiflorum; conditions: GR80 = lowest tested rate (300, 100, 30, 10 g/ha) with 80% or greater inhibition; approx. 14 days after treating; 30/21° C.
Summary of the method: as §4

SORVU (shattercane) = assay: Pre-plant incorporated (PPI) herbicidal activity, warm season; assay type: in vivo, Sorghum vulgare
Experimental: as §1, §2, §3

[2] = pre-plant incorporated, lowest tested rate with 80% or greater inhibition, about 14 days
[3] = weed, PPI application, 100 g/ha
[4] = weed, PPI application, 300 g/ha
[5] = weed, PPI application, 900 g/ha

## CCN(CC)C(=O)n1cnc(S(=O)(=O)C(F)(F)Br)n1 [Example 1, 3-(bromodifluoromethylsulfonyl)-1-(N,N-diethylcarbamoyl)-1,2,4-triazole]
ALOMY (blackgrass)
  Pre-emergence activity (GR80) ALOMY: 300 g/ha
POLCO (wild buckwheat); Fallopia convolvulus, weed, PPI application, 30 g/ha, read-out: Percent inhibition POLCO
  inhibition at 30 g/ha: 30%
POLCO (wild buckwheat); Fallopia convolvulus, weed, PPI application, 100 g/ha, read-out: Percent inhibition POLCO
  inhibition at 100 g/ha: 90%
POLCO (wild buckwheat); Fallopia convolvulus, weed, PPI application, 300 g/ha, read-out: Percent inhibition POLCO
  inhibition at 300 g/ha: 100%
POLCO (wild buckwheat); Fallopia convolvulus, weed, PPI application, 900 g/ha, read-out: Percent inhibition POLCO
  inhibition at 900 g/ha: 100%
POLCO (wild buckwheat); [2]
  PPI activity GR80, POLCO: * (activity observed, at least at highest rate, but <80% inhibition)
STEME (common chickweed); Stellaria media, weed, PPI application, 30 g/ha, read-out: Percent inhibition STEME
  inhibition at 30 g/ha: 60%
STEME (common chickweed); Stellaria media, weed, PPI application, 100 g/ha, read-out: Percent inhibition STEME
  inhibition at 100 g/ha: 100%
STEME (common chickweed); Stellaria media, weed, PPI application, 300 g/ha, read-out: Percent inhibition STEME
  inhibition at 300 g/ha: 99%
STEME (common chickweed); Stellaria media, weed, PPI application, 900 g/ha, read-out: Percent inhibition STEME
  inhibition at 900 g/ha: 95%
STEME (common chickweed); [2]
  PPI activity GR80, STEME: 100 g/ha
Rice (ORYSA); Oryza sativa, 10 g/ha, read-out: Percent inhibition ORYSA
  inhibition at 10 g/ha: 0%
Rice (ORYSA); Oryza sativa, 30 g/ha, read-out: Percent inhibition ORYSA
  inhibition at 30 g/ha: 0%
Rice (ORYSA); Oryza sativa, 100 g/ha, read-out: Percent inhibition ORYSA
  inhibition at 100 g/ha: 40%
Rice (ORYSA); Oryza sativa, 300 g/ha, read-out: Percent inhibition ORYSA
  inhibition at 300 g/ha: 60%
Rice (ORYSA); Oryza sativa, 900 g/ha, read-out: Percent inhibition ORYSA
  inhibition at 900 g/ha: 90%
SETFA (giant foxtail)
  Pre-emergence activity (GR80) SETFA: 100 g/ha
SETFA (giant foxtail); Setaria faberi, pre-emergence application, 10 g/ha, read-out: Percent inhibition, weed SETFA
  inhibition at 10 g/ha: 0%
SETFA (giant foxtail); Setaria faberi, pre-emergence application, 30 g/ha, read-out: Percent inhibition, weed SETFA
  inhibition at 30 g/ha: 0%
SETFA (giant foxtail); Setaria faberi, pre-emergence application, 100 g/ha, read-out: Percent inhibition, weed SETFA
  inhibition at 100 g/ha: 40%
SETFA (giant foxtail); Setaria faberi, pre-emergence application, 300 g/ha, read-out: Percent inhibition, weed SETFA
  inhibition at 300 g/ha: 100%
SETFA (giant foxtail); Setaria faberi, pre-emergence application, 900 g/ha, read-out: Percent inhibition, weed SETFA
  inhibition at 900 g/ha: 100%
[1]
  Pre-emergence activity (GR80) AGSST: 30 g/ha
ABUTH (velvetleaf); Abutilon theophrasti, PPI application, 10 g/ha, read-out: Percent inhibition ABUTH
  inhibition at 10 g/ha: 0%
ABUTH (velvetleaf); Abutilon theophrasti, PPI application, 30 g/ha, read-out: Percent inhibition ABUTH
  inhibition at 30 g/ha: 0%
ABUTH (velvetleaf); Abutilon theophrasti, PPI application, 100 g/ha, read-out: Percent inhibition ABUTH
  inhibition at 100 g/ha: 0%
ABUTH (velvetleaf); Abutilon theophrasti, PPI application, 300 g/ha, read-out: Percent inhibition ABUTH
  inhibition at 300 g/ha: 20%
ABUTH (velvetleaf); Abutilon theophrasti, PPI application, 900 g/ha, read-out: Percent inhibition ABUTH
  inhibition at 900 g/ha: 80%
ABUTH (velvetleaf); pre-plant incorporated, GR80 = lowest tested rate with 80% or greater inhibition, approx. 14 days after treating, 30/21° C.
  PPI activity (GR80) ABUTH: 100 g/ha
PANDI (fall panicum)
  Pre-emergence activity (GR80) PANDI: 30 g/ha
SORVU (shattercane); Sorghum bicolor, PPI application, 10 g/ha, read-out: Percent inhibition SORVU
  inhibition at 10 g/ha: 20%
SORVU (shattercane); Sorghum bicolor, PPI application, 30 g/ha, read-out: Percent inhibition SORVU
  inhibition at 30 g/ha: 80%
SORVU (shattercane); Sorghum bicolor, PPI application, 100 g/ha, read-out: Percent inhibition SORVU
  inhibition at 100 g/ha: 100%
SORVU (shattercane); Sorghum bicolor, PPI application, 300 g/ha, read-out: Percent inhibition SORVU
  inhibition at 300 g/ha: 100%
SORVU (shattercane); Sorghum bicolor, PPI application, 900 g/ha, read-out: Percent inhibition SORVU
  inhibition at 900 g/ha: 100%
SORVU (shattercane); [2]
  PPI activity GR80, SORVU: 100 g/ha

## CCN(CC)C(=O)n1cnc(S(=O)(=O)C(F)(F)F)n1 [Example 2]
ALOMY (blackgrass)
  Pre-emergence activity (GR80) ALOMY: 100 g/ha
POLCO (wild buckwheat); weed, PPI application, 30 g/ha
  Percent inhibition POLCO: 40%
POLCO (wild buckwheat); [3]
  Percent inhibition POLCO: 40%
POLCO (wild buckwheat); [4]
  Percent inhibition POLCO: 65%
POLCO (wild buckwheat); [5]
  Percent inhibition POLCO: 100%
STEME (common chickweed); weed, PPI application, 30 g/ha
  Percent inhibition STEME: 60%
STEME (common chickweed); [3]
  Percent inhibition STEME: 90%
STEME (common chickweed); [4]
  Percent inhibition STEME: 80%
STEME (common chickweed); [5]
  Percent inhibition STEME: 95%
Rice (ORYSA); 30 g/ha
  Percent inhibition ORYSA: 0%
Rice (ORYSA); 100 g/ha
  Percent inhibition ORYSA: 0%
Rice (ORYSA); 300 g/ha
  Percent inhibition ORYSA: 0%
Rice (ORYSA); 900 g/ha
  Percent inhibition ORYSA: 30%
SETFA (giant foxtail)
  Pre-emergence activity (GR80) SETFA: 100 g/ha
[1]
  Pre-emergence activity (GR80) AGSST: 30 g/ha
ABUTH (velvetleaf); PPI application, 30 g/ha
  Percent inhibition ABUTH: 0%
ABUTH (velvetleaf); PPI application, 100 g/ha
  Percent inhibition ABUTH: 0%
ABUTH (velvetleaf); PPI application, 300 g/ha
  Percent inhibition ABUTH: 20%
ABUTH (velvetleaf); PPI application, 900 g/ha
  Percent inhibition ABUTH: 75%
PANDI (fall panicum)
  Pre-emergence activity (GR80) PANDI: 30 g/ha
SORVU (shattercane); PPI application, 30 g/ha
  Percent inhibition SORVU: 50%
SORVU (shattercane); PPI application, 100 g/ha
  Percent inhibition SORVU: 100%
SORVU (shattercane); PPI application, 300 g/ha
  Percent inhibition SORVU: 95%
SORVU (shattercane); PPI application, 900 g/ha
  Percent inhibition SORVU: 100%

## CCN(CC)C(=O)n1cnc(S(=O)(=O)C(F)(F)Cl)n1 [Example 3]
ALOMY (blackgrass)
  Pre-emergence activity (GR80) ALOMY: 100 g/ha
POLCO (wild buckwheat); weed, PPI application, 30 g/ha
  Percent inhibition POLCO: 60%
POLCO (wild buckwheat); [3]
  Percent inhibition POLCO: 70%
POLCO (wild buckwheat); [4]
  Percent inhibition POLCO: 90%
POLCO (wild buckwheat); [5]
  Percent inhibition POLCO: 100%
STEME (common chickweed); weed, PPI application, 30 g/ha
  Percent inhibition STEME: 60%
STEME (common chickweed); [3]
  Percent inhibition STEME: 80%
STEME (common chickweed); [4]
  Percent inhibition STEME: 100%
STEME (common chickweed); [5]
  Percent inhibition STEME: 100%
Rice (ORYSA); 30 g/ha
  Percent inhibition ORYSA: 0%
Rice (ORYSA); 100 g/ha
  Percent inhibition ORYSA: 0%
Rice (ORYSA); 300 g/ha
  Percent inhibition ORYSA: 20%
Rice (ORYSA); 900 g/ha
  Percent inhibition ORYSA: 70%
SETFA (giant foxtail)
  Pre-emergence activity (GR80) SETFA: 100 g/ha
[1]
  Pre-emergence activity (GR80) AGSST: 30 g/ha
ABUTH (velvetleaf); PPI application, 30 g/ha
  Percent inhibition ABUTH: 0%
ABUTH (velvetleaf); PPI application, 100 g/ha
  Percent inhibition ABUTH: 0%
ABUTH (velvetleaf); PPI application, 300 g/ha
  Percent inhibition ABUTH: 30%
ABUTH (velvetleaf); PPI application, 900 g/ha
  Percent inhibition ABUTH: 60%
PANDI (fall panicum)
  Pre-emergence activity (GR80) PANDI: 100 g/ha
SORVU (shattercane); PPI application, 30 g/ha
  Percent inhibition SORVU: 70%
SORVU (shattercane); PPI application, 100 g/ha
  Percent inhibition SORVU: 95%
SORVU (shattercane); PPI application, 300 g/ha
  Percent inhibition SORVU: 100%
SORVU (shattercane); PPI application, 900 g/ha
  Percent inhibition SORVU: 100%
